Assay results from patent US20150246908A1, “KLF5 MODULATORS” (The Scripps Research Institute, priority 2012, published 2015).
In brackets after ≈: the same amount, converted by molar mass. Entries after “also recorded” stand apart in the source; their conditions may differ. Like-named read-outs stand apart in the source and are kept apart here.

Columns and labels:
KLF5 protein = KLF5 protein levels by Western blot in colon cancer cell lines; assay type: cell-based
From the text: The chemical structure of this compound is described using Formula (I) in which R^1=(E)-2-(3-chlorophenyl)ethenyl, R^2═H, R^3=4-tetrahydro-2H-thiopyran 1,1-dioxide, R^4=Me, X═NH, Y=absent).

[1] = Michael acceptor test, incubation with GSH, LCMS; assay type: physicochemical; conditions: by LCMS after incubation with 100 μM GSH
SW-620 (colon) = experiment: Tumor cell line potency, SW-620; assay type: cell-based
[2] = system: colon cancer cell line KM12; experiment: NCI60 cytotoxicity, KM12; assay type: cell-based; conditions: KM12, high KLF5 mRNA level
From the text: (§1) Moreover, cytotoxicity in general trends with KLF5 levels in the tumor types. […] Only the colon cancer cell line KM12, the ovarian cancer line IGROV1, and the non-small cell lung cancer line NCI-H322M are the NCI60 cell lines high with respect to KLF5 mRNA levels that are ML264-insensitive.

[3] = system: 67 protein targets of therapeutic and/or toxicological interest (GPCRs, ion channels, enzymes, etc.); experiment: Off-target activity vs. 67 protein targets
47 kinases = experiment: Off-target activity vs. 47 kinases; assay type: biochemical
Stability in PBS = assay type: physicochemical; conditions: read-out: Stability (t1/2) in PBS
[4] = system: ovarian cancer line IGROV1; experiment: NCI60 cytotoxicity, IGROV1; assay type: cell-based; conditions: IGROV1, high KLF5 mRNA level
From the text: as §1

[5] = system: non-small cell lung cancer line NCI-H322M; experiment: NCI60 cytotoxicity, NCI-H322M; assay type: cell-based; conditions: high KLF5 mRNA level
From the text: as §1

[6] = Solubility measured at Scripps; assay type: physicochemical; conditions: aqueous buffer
HCT-116 (colon) = experiment: Tumor cell line potency, HCT-116; assay type: cell-based
HT29 (colon) = experiment: Tumor cell line potency, HT29; assay type: cell-based
DLD-1 cell line = experiment: DLD-1 cell viability; assay type: cell-based; conditions: for EC50: cell viability, footnote calls it IC50 cell viability
human KLF5 promoter = experiment: KLF5 promoter luciferase assay in DLD-1/pGL4.18KLF5p cell line; assay type: cell-based; conditions: measuring luciferase activity
[7] = Homo sapiens, DLD-1, DlD-1 4.9 cell line

Structure (SMILES) | IC50 (human KLF5 promoter; [7]) [µM] | other results
CN(C(=O)CNC(=O)/C=C/c1cccc([N+](=O)[O-])c1)C1CCS(=O)(=O)C1 (stereo not shown) [CID46931037] | – | effect on KLF5 protein levels (KLF5 protein): lesser effects on KLF5 expression than ML264
CN(C(=O)COC(=O)/C=C/c1cccc([N+](=O)[O-])c1)C1CCS(=O)(=O)C1 (stereo not shown) [CID 5951923] | – | effect on KLF5 protein levels (KLF5 protein): lesser effects on KLF5 expression than ML264
CN(C(=O)CNC(=O)/C=C/c1cccc(Cl)c1)C1CCS(=O)(=O)CC1 [Compound 1, (E)-3-(3-chlorophenyl)-N-(2-((1,1-dioxidotetrahydro-2H-thiopyran-4-yl)(methyl)amino)-2-oxoethyl)acrylamide] | – | Michael acceptor [1]: Michael acceptor: No; IC50 (SW-620 (colon); Homo sapiens, SW-620 (colon)): 0.43 µM; effect on cell type (SW-620 (colon); SW620, submicromolar doses): significant effects at submicromolar doses; sensitivity to cytotoxicity [2]: ML264-insensitive; inhibition at 10 μM vs. 67 protein targets [3]: < 50%; effect on KLF5 protein levels (KLF5 protein; listed as ML264): significantly reduces KLF5 protein levels; also recorded: lowers KLF5 protein levels; off-target activity vs. 47 kinases (47 kinases): inactive; half-life (Stability in PBS): > 48 h; sensitivity to cytotoxicity [4]: ML264-insensitive; sensitivity to cytotoxicity [5]: ML264-insensitive; solubility ([6]; PBS, read-out: Solubility in PBS): 18.7 µM (≈ 7.2 µg/mL); solubility ([6]; assay buffer, read-out: Solubility in assay buffer): 35 µM (≈ 13.5 µg/mL); effect on cell type (HCT-116 (colon); HCT116, submicromolar doses): significant effects at submicromolar doses; IC50 (HCT-116 (colon); Homo sapiens, HCT-116 (colon)): 0.56 µM; effect on cell type (HT29 (colon); HT29, submicromolar doses): significant effects at submicromolar doses; IC50 (HT29 (colon); Homo sapiens, HT-29, HT29 (colon)): 0.13 µM; maximal effect on DLD-1 viability (DLD-1 cell line): > 90%; IC50 (DLD-1 cell line; Homo sapiens, DLD1 (colon), viability): 0.029 µM; EC50 (DLD-1 cell line; Homo sapiens): 0.022 µM
C[C@@H](NC(=O)/C=C/c1cccc(Cl)c1)C(=O)N(C)C1CCS(=O)(=O)CC1 [Compound 24] | > 100 | –
CN(C(=O)CNC(=O)/C=C/c1cccc(S(=O)(=O)N(C)C)c1)C1CCS(=O)(=O)C1 (stereo not shown) [Compound 25] | > 100 | –
O=C(/C=C/c1cccc(Cl)c1)NCC(=O)NC1CCS(=O)(=O)CC1 [Compound 26] | > 100 | –
C[C@@H](NC(=O)/C=C/c1cccc(Cl)c1)C(=O)NC1CCS(=O)(=O)C1 (stereo partly shown) [Compound 27] | > 100 | –
O=C(/C=C/c1cccc(Cl)c1)NCCC(=O)NC1CCS(=O)(=O)C1 (stereo not shown) [Compound 28] | > 100 | –
CN(C(=O)CCNC(=O)/C=C/c1cccc(Cl)c1)C1CCS(=O)(=O)C1 (stereo not shown) [Compound 29] | > 100 | –
C[C@@H](NC(=O)/C=C/c1cccc(Cl)c1)C(=O)N(C)C1CCS(=O)(=O)C1 (stereo partly shown) [Compound 30] | > 100 | –
C[C@@H](NC(=O)/C=C/c1cccc(Cl)c1)C(=O)NC1CCS(=O)(=O)CC1 [Compound 31] | > 100 | –
CN(C(=O)CNC(=O)c1cccc2c1OCCO2)C1CCS(=O)(=O)CC1 [Compound 32] | > 100 | –
CN(C(=O)CNC(=O)c1cc2cc(Cl)ccc2[nH]1)C1CCS(=O)(=O)CC1 [Compound 33] | > 100 | –
Cc1ccc(C2(C(=O)NCC(=O)N(C)C3CCS(=O)(=O)CC3)CC2)cc1 [Compound 34] | > 100 | –
CN(C(=O)CNS(=O)(=O)c1cccc2ccccc12)C1CCS(=O)(=O)CC1 [Compound 35] | > 100 | –
CN(C(=O)CNC(=O)Nc1ccc(Br)cc1Br)C1CCS(=O)(=O)CC1 [Compound 36] | > 100 | –

Structure (SMILES) | IC50 (human KLF5 promoter; [7]) [µM] | other results
CN(C(=O)CNC(=O)c1cc2ccccc2o1)C1CCS(=O)(=O)CC1 [Compound 38] | > 100 | –
CN(C(=O)CNC(=O)c1ccc2ccccc2n1)C1CCS(=O)(=O)CC1 [Compound 39] | > 100 | –
CN(C(=O)CNC(=O)Cc1ccc2c(c1)OCO2)C1CCS(=O)(=O)CC1 [Compound 40] | > 100 | –
CN(C(=O)CNC(=O)c1ccnn1-c1ccccc1)C1CCS(=O)(=O)CC1 [Compound 41] | > 100 | –
CN(C(=O)CNC(=O)COCc1ccccc1)C1CCS(=O)(=O)CC1 [Compound 42] | > 100 | –
COc1ccc(CC(=O)NCC(=O)N(C)C2CCS(=O)(=O)CC2)cc1 [Compound 43] | > 100 | –
CN(C(=O)CNC(=O)C1CCc2ccccc2O1)C1CCS(=O)(=O)CC1 (stereo not shown) [Compound 44] | > 100 | –
CN(C(=O)CNC(=O)c1coc2ccccc2c1=O)C1CCS(=O)(=O)CC1 [Compound 45] | > 100 | –
CN(C(=O)CNC(=O)c1ccc2cc[nH]c2c1)C1CCS(=O)(=O)CC1 [Compound 46] | > 100 | –
CN(C(=O)CNC(=O)c1ccc2ncsc2c1)C1CCS(=O)(=O)CC1 [Compound 47] | > 100 | –
CN(C(=O)CNC(=O)c1cnc2ccc(Cl)cc2c1)C1CCS(=O)(=O)CC1 [Compound 48] | > 100 | –
CN(C(=O)CNC(=O)c1ccsc1)C1CCS(=O)(=O)CC1 [Compound 49] | > 100 | –
COc1cccc(CNC(=O)NCC(=O)N(C)C2CCS(=O)(=O)CC2)c1 [Compound 50] | > 100 | –
O=C(/C=C/c1cccc(Cl)c1)NCC(=O)N(C1CC1)C1CCS(=O)(=O)CC1 [Compound 52] | – | IC50 (human KLF5 promoter; DlD-1 4.9 cell line): > 100 µM
CN(C(=O)COC(=O)/C=C/c1cccc([N+](=O)[O-])c1)C1CCS(=O)(=O)C1 (stereo not shown) [Compound 53C, reference compound] | 0.27 | EC50 (DLD-1 cell line; Homo sapiens): 1.51 µM
O=C(/C=C/c1cccc(Cl)c1)NCC(=O)N(C1CC1)C1CCS(=O)(=O)CC1 [Compound 54] | – | IC50 (human KLF5 promoter; DlD-1 4.9 cell line): 7.8 µM; EC50 (DLD-1 cell line; Homo sapiens): 0.39 µM
